Assay results from publication PMC11278568, “Implementation of Spore Display in Paenibacillus polymyxa with Different Hydrolytic Enzymes” (Microorganisms, 2024).

Columns and labels:
[1] = p-nitrophenol release, […] nm, […] h; type: cell-based, Paenibacillus polymyxa; conditions: enzyme displayed on spores (immobilised), OD600 1; 1 mM substrate; 50 mM Tris-HCl pH 7.5; 4-70 °C; side activity of the synthase
Lip3 = target: T1, Lip3 (Paenibacillus polymyxa, UniProt A0ABX2ZB39); assay: p-nitrophenol release, […] nm, […] h; type: cell-based; conditions: enzyme displayed on spores (immobilised), OD600 1; 1 mM substrate; 50 mM Tris-HCl pH 7.5; 4-70 °C
T1 construct: gene A7312_04500; fused via GGGGGSGGGGG linker to P. polymyxa CotE spore-coat anchor; gene amplified from DSM 365 genome (CP141264); printed NF024107.3 is a family model
T1 sequence (A0ABX2ZB39 1-335): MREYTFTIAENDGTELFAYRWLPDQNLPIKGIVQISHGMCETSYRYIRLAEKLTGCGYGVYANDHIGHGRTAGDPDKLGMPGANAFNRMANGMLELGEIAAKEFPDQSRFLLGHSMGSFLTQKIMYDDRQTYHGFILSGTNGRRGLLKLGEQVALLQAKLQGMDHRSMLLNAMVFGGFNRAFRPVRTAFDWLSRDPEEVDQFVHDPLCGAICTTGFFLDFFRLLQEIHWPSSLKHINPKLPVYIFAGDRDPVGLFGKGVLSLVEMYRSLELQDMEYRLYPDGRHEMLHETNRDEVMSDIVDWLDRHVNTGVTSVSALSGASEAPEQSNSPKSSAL

CCCCCCCC(=O)Oc1ccc([N+](=O)[O-])cc1 [C8, 4-Nitrophenyl-octanoate]
p-nitrophenol release, 410 nm, 1 h [1]: this enzyme showed hydrolytic activity for p-nitrophenyl caprylate (pNPC, C8) | p-nitrophenol release, 410 nm, 1 h (Lip3): The displayed Lip3 showed higher hydrolysis activity with rising temperature
